Experiments:
[1] = test system: human multiple myeloma cells OPM-2; experiment: Xenograft tumor model OPM-2 (multiple myeloma); format: in vivo, nude mice; conditions: oral gavage
Description: (§1) One of Human bladder cancer cells RT112 (European Collection of Cell Cultures), human multiple myeloma cells OPM-2 (German Collection of Microorganisms and Cell Cultures), human non-small cell lung cancer (NSCL) cells NCI-H460 (American Type Culture Collection), human pancreatic cancer cells BxPC-3 (American Type Culture Collection) or human gastric cancer cells SNU-16 (American Type Culture Collection) are expanded in culture, according to KOREAN CELL LINE BANK (KCLB) recommendations, harvested and injected subcutaneously onto the rear flank of nude mice. When tumors are established (7-21 days after implant), animals are randomized and grouped into control and test groups. Test compound is prepared in an appropriate vehicle (i.e. formulated in 10% Acacia), and the test compound and a vehicle control are administered by oral gavage. Tumor response is determined by tumor volume measurement performed twice a week during the course of treatment and reported as percent inhibition of tumor volume versus the vehicle control group.

[2] = test system: Human bladder cancer cells RT112; experiment: Xenograft tumor model RT-112 (bladder); format: in vivo, nude mice; conditions: oral gavage
Description: as §1

[3] = test system: human pancreatic cancer cells BxPC-3; experiment: Xenograft tumor model BxPC-3 (pancreatic); format: in vivo, nude mice; conditions: oral gavage
Description: as §1

[4] = test system: human gastric cancer cells SNU-16; experiment: Xenograft tumor model SNU-16 (gastric); format: in vivo, nude mice; conditions: oral gavage
Description: as §1

[5] = test system: human non-small cell lung cancer (NSCL) cells NCI-H460; experiment: Xenograft tumor model NCI-H460 (NSCLC); format: in vivo, nude mice; conditions: oral gavage
Description: as §1

[6] = test system: FGF9 induced ERK phosphorylation in Human RT112 bladder carcinoma cells; experiment: FGF9 induced p-ERK with BSA in RT112 cells; format: cell-based; conditions: RT-112, relative IC50, RT112 cells, 20 mg/mL BSA, 500 ng/mL FGF9
Method: Human RT112 bladder carcinoma cells are seeded at a density of 5,000 cells per well in 100 μL RPMI 1640 (Gibco 11875-085) supplemented with 10% fetal bovine serum (FBS, Gibco 10082-147) and 1% of a penicillin/streptomycin solution (Gibco 15140-122) in CELLBIND® 96 well plates (Corning 3340) and incubated overnight at 37° C. The next morning the growth medium is removed and replaced with 100 μL RPMI 1640 supplemented with 20 mg/mL bovine serum albumin (BSA). After 3 hours of incubation at 37° C., 20 μL of 3× serially diluted compounds in RPMI 1640 with 20 mg/mL BSA in 6% DMSO are added to each well. This yielded a 10 point dose-response curve ranging from 10-0.005 μM in 1% DMSO. The incubation is continued for 1 hour at 37° C. The cells are stimulated with 50 μL of a […] FGF9 (R&D Systems 273-F9) solution in serum free RPMI to give a final concentration of 500 ng/mL FGF9. Cells are fixed by the addition of 30 μL of a 25% formaldehyde solution in phosphate buffered saline (PBS) (3.7% formaldehyde final concentration), and incubated 30 minutes at RT. Cells are washed 3× with PBS, followed by the addition of 100 μL of cold methanol and incubated for 30 minutes at −20° C. The methanol is removed and the cells are treated with PBS containing 0.1% TRITON® X-100 (PBST), washed 3× with PBS, and incubated 15 minutes at RT. […]

[7] = target: T1, Kdr (Mus musculus, UniProt P35918); experiment: In vivo Kdr target inhibition assay (VEGF induced phospho-Kdr in mouse heart); conditions: female nude mice, oral gavage, VEGF i.v., heart tissue
T1 construct: Heart tissues are collected and homogenized as described above; from tissue; host or cells: heart of female nude mice (CD1/nu/nu)
Method: To assess the activity of this compound against Kdr, female nude mice (CD1/nu/nu) are acclimated and treated as described above except VEGF is used to induce Kdr autophosphorylation {VEGF (6 ug/animal, R & D Systems 493-MV/CF). Heart tissues are collected and homogenized as described above. The resulting homogenates are analyzed using MSD® phospho-Kdr ELISA (Meso Scale Discovery, catalog number N41ZA-1) to determine tissue phospho-Kdr level. […] The positive control group is treated with VEGF […]) in saline administered intravenously (as minimum p-KDR inhibition of 0%).

[8] = test system: FGF receptor 1 (b-FGF induced pERK in HUVEC); experiment: AlphaScreen SureFire Detection of ERK phosphorylation (Thr202/Tyr204) in HUVEC; format: cell-based; conditions: Homo sapiens, b-FGF 50 ng/mL, 20 mg/mL BSA
Method: The effect of compounds on the inhibition of FGF receptor 1 is measured by monitoring the phosphorylation of ERK (pERK) in response to basic-Fibroblast growth factor (b-FGF) stimulation in Human Umbilical Endothelial cells (HUVEC). The levels of pERK formed are measured using the ALPHASCREEN® […]® system (TGR Biosciences, TGRES50K). This is a homogeneous assay format utilizing the immuno-sandwich capture of the phosphorylated analyte followed by detection using antibody-coated ALPHASCREEN® beads (Perkin Elmer) to generate an amplified signal.
HUVEC cells are recovered and maintained in growth medium consisting of endothelial cell basal medium (Clonetics, CC-3132) supplemented with 10% FBS 0.4% bovine brain extract 0.1% hydrocortisone, 0.1% gentamicin sulfate amphotericin-B (GA-1000), and 0.1% epidermal growth factor, human recombination until passage 7. For the assay, cells are harvested by standard procedures and then counted. Cells (20,000/well) are plated in 100 μL of growth medium into 96 well Poly-D-Lysine coated plates (BD, 354640). Plates are incubated overnight at 37° C., 5% CO2.
On the day of the assay, cells are serum starved in 100 μL EBM (endothelial cell basal) medium containing 1.5% FBS and 20 mg/mL BSA for 3 hours at 37° C., 5% CO2, then treated with 20 μL of 3× serially diluted compounds in starvation medium for 1 hour at 37° C. […]

T1 sequence (P35918 20-1345): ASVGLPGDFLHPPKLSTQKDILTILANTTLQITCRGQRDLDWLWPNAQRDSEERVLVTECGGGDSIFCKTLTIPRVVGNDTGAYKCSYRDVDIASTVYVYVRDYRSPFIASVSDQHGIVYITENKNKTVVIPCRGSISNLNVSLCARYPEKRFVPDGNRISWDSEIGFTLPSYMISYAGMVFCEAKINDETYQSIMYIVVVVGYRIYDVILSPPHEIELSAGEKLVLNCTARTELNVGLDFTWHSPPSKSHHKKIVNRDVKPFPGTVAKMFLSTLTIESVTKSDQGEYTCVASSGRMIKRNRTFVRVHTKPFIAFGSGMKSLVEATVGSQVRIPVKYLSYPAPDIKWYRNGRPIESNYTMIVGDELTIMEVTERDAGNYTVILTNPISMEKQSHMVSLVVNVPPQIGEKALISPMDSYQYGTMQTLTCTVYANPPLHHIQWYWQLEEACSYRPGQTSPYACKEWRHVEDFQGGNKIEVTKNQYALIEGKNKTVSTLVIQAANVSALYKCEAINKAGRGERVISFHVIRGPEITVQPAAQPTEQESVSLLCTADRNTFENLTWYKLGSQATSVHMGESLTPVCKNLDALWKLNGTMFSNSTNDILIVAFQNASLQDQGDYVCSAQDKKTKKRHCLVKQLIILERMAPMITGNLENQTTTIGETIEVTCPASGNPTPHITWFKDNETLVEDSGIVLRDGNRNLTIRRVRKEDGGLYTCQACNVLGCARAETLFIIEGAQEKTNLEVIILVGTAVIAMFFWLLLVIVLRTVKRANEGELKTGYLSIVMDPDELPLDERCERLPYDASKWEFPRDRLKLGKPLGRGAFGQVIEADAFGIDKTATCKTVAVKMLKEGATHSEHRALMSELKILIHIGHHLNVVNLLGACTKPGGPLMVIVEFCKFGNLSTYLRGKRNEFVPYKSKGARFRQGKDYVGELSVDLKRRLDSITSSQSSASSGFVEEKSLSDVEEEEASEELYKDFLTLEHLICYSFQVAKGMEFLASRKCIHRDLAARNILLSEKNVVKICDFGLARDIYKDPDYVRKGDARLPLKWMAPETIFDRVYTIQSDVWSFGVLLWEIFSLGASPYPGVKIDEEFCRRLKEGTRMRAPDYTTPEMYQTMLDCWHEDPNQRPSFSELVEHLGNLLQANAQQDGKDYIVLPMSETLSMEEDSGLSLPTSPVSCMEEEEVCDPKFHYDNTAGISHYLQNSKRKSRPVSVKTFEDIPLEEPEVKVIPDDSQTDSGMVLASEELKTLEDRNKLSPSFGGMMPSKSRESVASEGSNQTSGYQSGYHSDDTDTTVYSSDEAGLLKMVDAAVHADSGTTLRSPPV

C[C@@H](Oc1ccc2[nH]nc(/C=C/c3cnn(CCO)c3)c2c1)c1c(Cl)cncc1Cl [Example 1, (R)-(E)-2-(4-(2-(5-(1-(3,5-Dichloropyridin-4-yl)ethoxy)-1H-indazol-3-yl)vinyl)-1H-pyrazol-1-yl)ethanol]
percent inhibition of tumor volume versus vehicle control ([1]; OPM-2, 3 mg/kg BID for 21 days): 84% | percent inhibition of tumor volume versus vehicle control ([1]; OPM-2, 3 mg/kg QD for 21 days): 68% | percent inhibition of tumor volume versus vehicle control ([2]; RT-112, 3 mg/kg BID for 21 days): 85.9% | percent inhibition of tumor volume versus vehicle control ([2]; RT-112, 3 mg/kg QD for 21 days): 41.3% | percent inhibition of tumor volume versus vehicle control ([3]; BxPC-3, 3 mg/kg BID for 21 days): 55% | percent inhibition of tumor volume versus vehicle control ([3]; BxPC-3, 3 mg/kg QD for 21 days): 1% | percent inhibition of tumor volume versus vehicle control ([4]; SNU-16, 3 mg/kg BID for 17 days): 83% | percent inhibition of tumor volume versus vehicle control ([4]; SNU-16, 3 mg/kg QD for 17 days): 62% | percent inhibition of tumor volume versus vehicle control ([5]; NCI-H460, 3 mg/kg BID for 17 days): 69% | percent inhibition of tumor volume versus vehicle control ([5]; NCI-H460, 3 mg/kg QD for 17 days): 46% | IC50 [6]: 0.4 nM | TEC90 (concentration necessary to achieve 90% inhibition of phospho-Kdr) [7]: 252 nM | TED50 (dose necessary to achieve 50% inhibition of phospho-Kdr) [7]: 1.34 mg/kg | IC50 [8]: 0.6 nM

Reference: patent US8268869B2, “Vinyl indazolyl compounds” (Eli Lilly and Company, priority 2009, dated 2012)
